PubChem BioAssay AID1259407 (Chemical Carcinogenesis Research Information System (CCRIS), 2018)
The source made the active and inactive calls. How the calls were made is not given here.

System: CCRIS mutagenicity, Ames/micronucleus/aberration tests
Experiment: CCRIS mutagenicity studies

## c1ccccc1
End Point: IN VITRO CHROMOSOMAL ABERRATIONS, Test System: BOVINE PERIPHERAL LYMPHOCYTES, Metabolic Activation: NONE
  mutagenic call: active; positive (structural changes)
End Point: IN VITRO CHROMOSOMAL ABERRATIONS, Test System: BOVINE PERIPHERAL LYMPHOCYTES, Metabolic Activation: NONE, Method: FISH
  mutagenic call: active; positive (structural changes)
End Point: IN VITRO CHROMOSOMAL ABERRATIONS, Test System: BOVINE PERIPHERAL LYMPHOCYTES, Metabolic Activation: RAT, S-9, AROCLOR 1254
  mutagenic call: active; positive (structural changes)
End Point: IN VITRO CHROMOSOMAL ABERRATIONS, Test System: CHO CELLS, Metabolic Activation: NONE
  mutagenic call: inactive; negative
End Point: IN VITRO CHROMOSOMAL ABERRATIONS, Test System: CHO CELLS, Metabolic Activation: RAT, LIVER, S-9, AROCLOR 1254
  mutagenic call: inactive; negative
End Point: IN VITRO MICRONUCLEUS, Test System: AHH-1 CELLS, Metabolic Activation: NONE
  mutagenic call: inactive; negative
End Point: IN VITRO MICRONUCLEUS, Test System: BOVINE LYMPHOCYTES, Metabolic Activation: NONE
  mutagenic call: active; positive
End Point: IN VITRO MICRONUCLEUS, Test System: BOVINE LYMPHOCYTES, Metabolic Activation: S-9 MIX, AROCLOR 1254
  mutagenic call: active; positive
End Point: IN VITRO MICRONUCLEUS, Test System: CHL/IU CELLS, Metabolic Activation: RAT, LIVER, S-9, PHENOBARBITAL AND 5,6-BENZOFLAVONE
  mutagenic call: active; positive
End Point: IN VITRO MICRONUCLEUS, Test System: MCL-5 CELLS, Metabolic Activation: NONE
  mutagenic call: active; positive
End Point: IN VITRO MICRONUCLEUS, Test System: V79 CELLS, Metabolic Activation: RAT, LIVER, S-9, AROCLOR 1254
  mutagenic call: inactive; negative
End Point: IN VIVO CHROMOSOMAL ABERRATIONS, Test System: DUAL COLOR PAINTING OF CHROMOSOMES 8 AND 21 FROM PERIPHERAL LYMPHOCYTES, METAPHASE SPREADS, Species: HUMAN, Strain/Sex: MALE, FEMALE, Route: INHALATION (WORKPLACE), Method: FISH
  mutagenic call: active; positive
End Point: IN VIVO CHROMOSOMAL ABERRATIONS, Test System: HUMAN PERIPHERAL LYMPHOCYTES, Species: HUMAN, Route: INHALATION (WORKPLACE), Method: FISH
  mutagenic call: breaks in chromosomes 1 and 9
End Point: IN VIVO CHROMOSOMAL ABERRATIONS, Test System: LYMPHOCYTES, Species: HUMAN, Route: PROBABLY INHALATION, Method: FISH (INTERPHASE OR METAPHASE; CHROMOSOMES 7, 8, 9)
  mutagenic call: active; positive (structural and ploidy changes)
End Point: IN VIVO CHROMOSOMAL ABERRATIONS, Test System: PERIPHERAL BLOOD LYMPHOCYTES, Species: HUMAN (COKE OVEN WORKERS), Route: INHALATION, Method: FISH
  mutagenic call: active; positive (monosomy and trisomy of chromosomes 8 and 21)
End Point: IN VIVO CHROMOSOMAL ABERRATIONS, Test System: PERIPHERAL BLOOD LYMPHOCYTES, Species: HUMAN (PETROLEUM REFINERY WORKERS), Strain/Sex: MALE, Route: INDUSTRIAL EXPOSURE
  mutagenic call: active; positive
End Point: IN VIVO CHROMOSOMAL ABERRATIONS, Test System: PERIPHERAL HUMAN LYMPHOCYTES, Species: HUMAN, Route: INDUSTRIAL EXPOSURE (INHALATION)
  mutagenic call: active; positive (ploidy)
End Point: IN VIVO MICRONUCLEUS, Test System: BONE MARROW POLYCHROMATIC ERYTHROCYTES, Species: MOUSE, Strain/Sex: CD-1/MALE, Route: ORAL (GAVAGE)
  mutagenic call: active; positive
End Point: IN VIVO MICRONUCLEUS, Test System: BONE MARROW, Species: MOUSE, Strain/Sex: B6C3F1/MALE, Route: GAVAGE
  mutagenic call: active; positive
End Point: IN VIVO MICRONUCLEUS, Test System: SPLENOCYTES, Species: MOUSE, Strain/Sex: CD-1/MALE, Route: ORAL (GAVAGE)
  mutagenic call: active; positive
End Point: In vivo micronucleus, Test System: Bone marrow polychromatic erythrocytes, Species: Mouse, Strain/Sex: CD-1/Male, Route: Inhalation
  mutagenic call: active; positive
End Point: In vivo micronucleus, Test System: Peripheral blood normochromatic erythrocytes, Species: Mouse, Strain/Sex: B6.129-Cdkn2atm1Rdp (i.e. Haploinsufficient p16Ink4a/p19Arf)/Female, Route: Gavage
  mutagenic call: active; positive (deletions in the cdkn2a gene predispose rodents to cancer at multiple
End Point: In vivo micronucleus, Test System: Peripheral blood normochromatic erythrocytes, Species: Mouse, Strain/Sex: B6.129-Cdkn2atm1Rdp (i.e. Haploinsufficient p16Ink4a/p19Arf)/Male, Route: Gavage
  mutagenic call: active; positive (deletions in the cdkn2a gene predispose rodents to cancer at multiple
Test System: AMES SALMONELLA TYPHIMURIUM, Strain/Indicator: TA97, Metabolic Activation: HAMSTER LIVER S-9, AROCLOR 1254 (10 OR 30%), Method: PREINCUBATION
  mutagenic call: inactive; negative
Test System: AMES SALMONELLA TYPHIMURIUM, Strain/Indicator: TA97, Metabolic Activation: NONE, Method: PREINCUBATION
  mutagenic call: inactive; negative
Test System: AMES SALMONELLA TYPHIMURIUM, Strain/Indicator: TA97, Metabolic Activation: NONE, Method: STANDARD PLATE
  mutagenic call: inactive; negative
Test System: AMES SALMONELLA TYPHIMURIUM, Strain/Indicator: TA97, Metabolic Activation: RAT LIVER S-9, AROCLOR 1254 (10 OR 30%), Method: PREINCUBATION
  mutagenic call: inactive; negative
Test System: AMES SALMONELLA TYPHIMURIUM, Strain/Indicator: TA97, Metabolic Activation: RAT, LIVER, S-9, AROCLOR 1254, Method: STANDARD PLATE
  mutagenic call: inactive; negative
Test System: AMES SALMONELLA TYPHIMURIUM, Strain/Indicator: TA97, Metabolic Activation: S-9, Method: STANDARD PLATE
  mutagenic call: inactive; negative
Test System: AMES SALMONELLA TYPHIMURIUM, Strain/Indicator: TA98, Metabolic Activation: HAMSTER LIVER S-9, AROCLOR 1254 (10 OR 30%), Method: PREINCUBATION
  mutagenic call: inactive; negative
Test System: AMES SALMONELLA TYPHIMURIUM, Strain/Indicator: TA98, Metabolic Activation: NONE, Method: PREINCUBATION
  mutagenic call: inactive; negative
Test System: AMES SALMONELLA TYPHIMURIUM, Strain/Indicator: TA98, Metabolic Activation: RAT LIVER S-9, AROCLOR 1254 (10 OR 30%), Method: PREINCUBATION
  mutagenic call: inactive; negative
Test System: AMES SALMONELLA TYPHIMURIUM, Strain/Indicator: TA98, Metabolic Activation: RAT, LIVER, S-9, AROCLOR 1254, Method: DESICCATOR
  mutagenic call: inactive; negative
Test System: AMES SALMONELLA TYPHIMURIUM, Strain/Indicator: TA98, Metabolic Activation: RAT, LIVER, S-9, AROCLOR 1254, Method: STANDARD PLATE
  mutagenic call: inactive; negative
Test System: AMES SALMONELLA TYPHIMURIUM, Strain/Indicator: TA98, Metabolic Activation: RAT, LIVER, S-9, AROCLOR, Method: STANDARD PLATE
  mutagenic call: inactive; negative
Test System: AMES SALMONELLA TYPHIMURIUM, Strain/Indicator: TA98, Metabolic Activation: RAT, LIVER, S-9, ETHANOL, Method: STANDARD PLATE
  mutagenic call: inactive; negative
Test System: AMES SALMONELLA TYPHIMURIUM, Strain/Indicator: TA98, Metabolic Activation: RAT, LIVER, S-9, PHENOBARBITAL, Method: STANDARD PLATE
  mutagenic call: inactive; negative
Test System: AMES SALMONELLA TYPHIMURIUM, Strain/Indicator: TA98, Metabolic Activation: RAT, LIVER, S-9, PYRAZOLE, Method: STANDARD PLATE
  mutagenic call: inactive; negative
Test System: AMES SALMONELLA TYPHIMURIUM, Strain/Indicator: TA98, Metabolic Activation: S-9, Method: STANDARD PLATE
  mutagenic call: inactive; negative
Test System: AMES SALMONELLA TYPHIMURIUM, Strain/Indicator: TA100, Metabolic Activation: HAMSTER LIVER S-9, AROCLOR 1254 (10 OR 30%), Method: PREINCUBATION
  mutagenic call: inactive; negative
Test System: AMES SALMONELLA TYPHIMURIUM, Strain/Indicator: TA100, Metabolic Activation: NONE, Method: DESICCATOR
  mutagenic call: inactive; negative
Test System: AMES SALMONELLA TYPHIMURIUM, Strain/Indicator: TA100, Metabolic Activation: NONE, Method: PREINCUBATION
  mutagenic call: inactive; negative
Test System: AMES SALMONELLA TYPHIMURIUM, Strain/Indicator: TA100, Metabolic Activation: RAT LIVER S-9, AROCLOR 1254 (10 OR 30%), Method: PREINCUBATION
  mutagenic call: inactive; negative
Test System: AMES SALMONELLA TYPHIMURIUM, Strain/Indicator: TA100, Metabolic Activation: RAT, LIVER, S-9, AROCLOR 1254, Method: DESICCATOR
  mutagenic call: inactive; negative
Test System: AMES SALMONELLA TYPHIMURIUM, Strain/Indicator: TA100, Metabolic Activation: RAT, LIVER, S-9, AROCLOR 1254, Method: STANDARD PLATE
  mutagenic call: inactive; negative
Test System: AMES SALMONELLA TYPHIMURIUM, Strain/Indicator: TA100, Metabolic Activation: RAT, LIVER, S-9, AROCLOR, Method: STANDARD PLATE
  mutagenic call: inactive; negative
Test System: AMES SALMONELLA TYPHIMURIUM, Strain/Indicator: TA100, Metabolic Activation: RAT, LIVER, S-9, ETHANOL, Method: STANDARD PLATE
  mutagenic call: inactive; negative
